From patent US6579881B2 (Eisai Co., Ltd., priority 1997, dated 2003)

Tests used:
α1 adrenalin receptor = assay: Binding test on [3H] prazosin (α1 adrenalin receptor); parameters: species or system rat; details: [3H] prazosin about 0.2 nM, receptor fraction of rat cerebral cortex
Protocol: Methysergide maleate was dissolved in distilled water before using.
Use was made of SD rats aged 6 to 8 weeks.
The rats were sacrificed by dcapitation to extirpate the cerebra.
The hippocampus was mixed with 50 times (on the wet weight basis) as much a 0.32 M sucrose solution while the cortex was mixed with 10 times as much the same solution. Each mixture was homogenized by using a Teflon glass homogenizer and centrifuged at 1,000×g for 10 min. The supernatant thus obtained was further centrifuged at 20,000×g for 20 min. The obtained precipitate was re-suspended in 50 times (based on the intial wet weight; in the case of the hippocampus) or 10 times (in the case of the cortex) as much a 50 mM Tris hydrochloride (pH 7.4) and incubated at room temperature for 30 min. After centrifuging at 20,000×g for 20 min, the obtained precipitate was further suspended and centrifuged twice each in the same manner. The precipitate thus obtained was suspended in 100 times (based on the initial wet weight; in the case of the hippocampus) or 20 times (in the case of the cortex) as much a 50 mM Tris hydrochloride solution (pH 7.4) to thereby give a receptor fraction. This receptor fraction was stored at −80° C. until using.
(Binding Test on [^3H] Prazosin)
Next, it was filtered through a glass filter with the use of a cell harvester. After washing the glass filter with 50 mM Tris hydrochloride (pH 7.4), the radioactivity of the receptor was measured with a liquid scintillation counter. The binding detected in the presence of 10 μM of phentolamine was referred to as the nonspecific binding.
Subsequently, the abilities of typical examples of the compounds of the present invention to bind to the α1 adrenalin receptor were evaluated by the test method described above.

serotonin 2 receptor = serotonin 2 receptor (Rattus norvegicus, UniProt P14842); assay: Binding test on [3H] ketanserin (serotonin 2 receptor); details: [3H] ketanserin 0.3 nM, receptor fraction of rat cerebral cortex; read-out: 5HT2
Chain of serotonin 2 receptor (P14842 whole entry): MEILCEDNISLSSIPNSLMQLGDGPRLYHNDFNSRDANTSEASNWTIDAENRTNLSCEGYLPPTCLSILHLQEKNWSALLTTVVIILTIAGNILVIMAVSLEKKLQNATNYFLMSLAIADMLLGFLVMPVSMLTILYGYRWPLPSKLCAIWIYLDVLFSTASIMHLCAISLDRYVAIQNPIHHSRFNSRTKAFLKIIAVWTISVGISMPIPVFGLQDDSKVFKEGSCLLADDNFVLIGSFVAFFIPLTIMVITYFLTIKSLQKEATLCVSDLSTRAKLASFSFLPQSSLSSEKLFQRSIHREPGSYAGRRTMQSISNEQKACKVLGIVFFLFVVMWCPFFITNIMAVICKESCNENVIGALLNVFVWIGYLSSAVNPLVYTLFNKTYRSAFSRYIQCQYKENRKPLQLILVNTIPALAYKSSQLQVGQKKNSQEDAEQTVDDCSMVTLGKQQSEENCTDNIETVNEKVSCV

serotonin 1A receptor = target: T1, serotonin 1A receptor (Rattus norvegicus, UniProt P19327); assay: Binding test on [3H] 8-hydroxy-dipropylaminotetralin (serotonin 1A receptor); details: [3H] 8-OH-DPAT 0.5 nM, receptor fraction of rat hippocampus; read-out: 5HT1a
T1 construct: To the receptor fraction of the hippocampus were added a test compound and 0.5 nM of [^3H]; 8-hydroxy-dipropylaminotetralin; from tissue; host or cells: SD rat hippocampus, membrane (receptor) fraction
T1 sequence (P19327 1-422): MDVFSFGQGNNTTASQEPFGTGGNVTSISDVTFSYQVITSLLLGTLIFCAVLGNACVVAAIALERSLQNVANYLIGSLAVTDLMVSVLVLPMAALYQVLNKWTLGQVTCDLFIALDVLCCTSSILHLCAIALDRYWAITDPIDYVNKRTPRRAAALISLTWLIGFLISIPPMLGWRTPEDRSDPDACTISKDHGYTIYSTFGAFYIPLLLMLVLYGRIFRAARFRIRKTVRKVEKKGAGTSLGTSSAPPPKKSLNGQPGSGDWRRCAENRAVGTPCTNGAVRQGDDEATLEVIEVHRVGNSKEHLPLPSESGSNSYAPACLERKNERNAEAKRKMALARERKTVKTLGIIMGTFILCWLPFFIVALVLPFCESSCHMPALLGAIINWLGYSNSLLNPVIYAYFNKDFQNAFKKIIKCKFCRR

Row | Structure (SMILES) | melting point [°C] | Ki (α1 adrenalin receptor) [nM] | Ki (serotonin 2 receptor) [nM] | Ki (serotonin 1A receptor) [nM]
1 | OCCCc1ccc2ccn(C3CCN(CCc4ccc(F)cc4)CC3)c2c1 [Example 321, 1-[1-(4-fluorophenethyl)piperidin-4-yl]-6-(3-hydroxypropyl)indole] | 131 to 133 | 203 | > 20 | 0.14
2 | CS(=O)(=O)NCc1ccc2ccn(C3CCN(CCc4ccc(F)cc4)CC3)c2c1 [Example 322, 1-[1-(4-fluorophenethyl)piperidin-4-yl]-6-methanesulfonamidomethylindole] | 121 to 122 | 41.3 | 30.4 | 0.08
3 | CC(C)S(=O)(=O)NCc1ccc2ccn(C3CCN(CCc4ccc(F)cc4)CC3)c2c1 [Example 323, 1-[1-(4-fluorophenethyl)piperidin-4-yl]-6-isopropylsulfonamidomethylindole] | 90 to 92 | 86.9 | > 20 | 0.14
4 | CCCS(=O)(=O)NCc1ccc2ccn(C3CCN(CCc4ccc(F)cc4)CC3)c2c1 [Example 324, 1-[1-(4-fluorophenethyl)piperidin-4-yl]-6-n-propylsulfonamidomethylindole] | 80 to 81 | 60.9 | > 20 | 0.1
5 | O=S(=O)(CCCCl)NCc1ccc2ccn(C3CCN(CCc4ccc(F)cc4)CC3)c2c1 [Example 325, 1-[1-(4-fluorophenethyl)piperidin-4-yl]-6-(3-chloropropyl)sulfonamidomethylindole] | 143 to 145 | 47 | 10.9 | 0.65
6 | CCC(=O)NCc1ccc2ccn(C3CCN(CCc4ccc(F)cc4)CC3)c2c1 [Example 327, 1-[1-(4-fluorophenethyl)piperidin-4-yl]-6-propionylaminomethylindole] | 141 to 142 | 99 | 2.64 | 1.04
7 | CC(=O)NCc1ccc2c(Cl)cn(C3CCN(CCc4ccc(F)cc4)CC3)c2c1 [Example 328, 3-chloro-1-[1-(4-fluorophenethyl)piperidin-4-yl]-6-acetamidomethylindole] | 101 to 102 | 140 | > 20 | 2.06
8 | OCCOc1ccc2ccn(C3CCN(CCc4ccc(F)cc4)CC3)c2c1 [Example 330, 1-[1-(4-fluorophenethyl)piperidin-4-yl]-6-hydroxyethoxyindole] | 118 to 119 | 339 | > 20 | 0.11
9 | CS(=O)(=O)c1ccc2ccn(C3CCN(CCc4ccc(F)cc4)CC3)c2c1 [Example 331, 1-[1-(4-fluorophenethyl)piperidin-4-yl]-6-methanesulfonylindole] | 133 to 135 | 77 | 8.28 | 0.11
10 | Fc1ccc(CCN2CCC(n3ccc4cc5scnc5cc43)CC2)cc1 [Example 334, 1-[1-(4-fluorophenethyl)piperidin-4-yl]thiazolo[5.4-f]indole] | 152 to 154 | 212 | > 20 | 0.04
11 | CS(=O)(=O)Oc1ccc2ccn(C3CCN(CCc4ccc(F)cc4)CC3)c2c1 [Example 336, 1-[1-(4-fluorophenethyl)piperidin-4-yl]-6-methanesulfonyloxyindole] | 213 to 215 | 53.7 | > 20 | < 0.2
12 | CNS(=O)(=O)Cc1ccc2ccn(C3CCN(CCc4ccc(F)cc4)CC3)c2c1 [Example 338, 1-[1-(4-fluorophenethyl)piperidin-4-yl]-6-(N-methylsulfamoylmethyl)indole] | 172 to 175 | 21.3 | > 20 | 0.07
13 | CC(=O)Nc1ccc2ccn(C3CCN(CCc4ccc(F)cc4)CC3)c2c1 [Example 339, 1-[1-(4-fluorophenethyl)piperidin-4-yl]-6-acetamidoindole] | 195 to 196 | 31.7 | > 20 | < 0.2
14 | CNC(=O)Cc1ccc2ccn(C3CCN(CCc4ccccc4F)CC3)c2c1 [Example 342, 1-[1-(2-fluorophenethyl)piperidin-4-yl]-6-methylcarbamoylmethylindole] | 136.5 to 137.4 | 25 | 38.1 | 0.65
15 | CCNC(=O)Cc1ccc2ccn(C3CCN(CCc4ccccc4F)CC3)c2c1 [Example 344, 1-[1-(2-fluorophenethyl)piperidin-4-yl]-6-ethylcarbamoylmethylindole] | 147 to 148.6 | 74.9 | 1.64 | 1.78
16 | O=C(Cc1ccc2ccn(C3CCN(CCc4ccccc4F)CC3)c2c1)NCCO [Example 346, 1-[1-(2-fluorophenethyl)piperidin-4-yl]-6-(2-hydroxyethyl)carbamoylmethylindole] | 127.7 to 128.6 | 116 | 1.49 | 13.5
17 | O=C(Cc1ccc2ccn(C3CCN(CCc4ccc(F)cc4)CC3)c2c1)NCC1OCCO1 [Example 347, 1-[1-(4-fluorophenethyl)piperidin-4-yl]-6-(1,3-dioxolan-2-ylmethyl)carbamoylmethylindole] | 173.8 to 174.6 | 44.3 | 0.65 | 2.24
18 | CC(=O)NCc1ccc2ccn(C3CCN(CCc4ccc(Cl)cc4)CC3)c2c1 [Example 349, 1-[1-(4-chlorophenethyl)piperidin-4-yl]-6-acetamidomethylindole] | 148 to 149 | 88.5 | 8.12 | 0.22
19 | CC(=O)NCc1ccc2ccn(C3CCN(CCc4cccc(F)c4)CC3)c2c1 [Example 350, 1-[1-(3-fluorophenethyl)piperidin-4-yl]-6-acetamidomethylindole] | 134 to 135 | 123 | 11.4 | 1.92
20 | COc1ccc(CCN2CCC(n3ccc4ccc(CNC(C)=O)cc43)CC2)cc1 [Example 351, 1-[1-(4-methoxyphenethyl)piperidin-4-yl]-6-acetamidomethylindole] | 101 to 102 | 175 | > 20 | 0.27
21 | CC(=O)NCc1ccc2ccn(C3CCN(CCc4ccccc4F)CC3)c2c1 [Example 352, 1-[1-(2-fluorophenethyl)piperidin-4-yl]-6-acetamidomethylindole] | 101 to 102 | 96.7 | 0.75 | 1.58
22 | O=C1CNC(=O)N1Cc1ccc2ccn(C3CCN(CCc4ccc(F)cc4)CC3)c2c1 [Example 353, 1-[1-(4-fluorophenethyl)piperidin-4-yl]-6-(2,4-imidazolidinedion-3-yl)methylindole] | 156 to 157 | 144 | 12.6 | 0.78
23 | CC(C)C(=O)NCc1ccc2ccn(C3CCN(CCc4ccc(F)cc4)CC3)c2c1 [Example 354, 1-[1-(4-fluorophenethyl)piperidin-4-yl]-6-isobutyrylaminomethylindole] | 97 to 98 | 90.5 | 4.79 | 1.22
24 | O=C(NCc1ccc2ccn(C3CCN(CCc4ccc(F)cc4)CC3)c2c1)C1CC1 [Example 363, 1-[1-(4-fluorophenethyl)piperidin-4-yl]-6-cyclopropanecarboxamidomethylindole] | 116 to 117 | 106 | 3.39 | 1.5
25 | O=C(CO)NCc1ccc2ccn(C3CCN(CCc4ccc(F)cc4)CC3)c2c1 [Example 364, 1-[1-(4-fluorophenethyl)piperidin-4-yl]-6-hydroxyacetamidomethylindole] | 76 to 78 | 289 | 4.23 | 1.73
26 | O=C(NCc1ccc2ccn(C3CCN(CCc4ccc(F)cc4)CC3)c2c1)C(F)F [Example 365, 1-[1-(4-fluorophenethyl)piperidin-4-yl]-6-difluoroacetamidomethylindole] | 79 to 80 | 61.6 | 3.11 | 0.42
27 | O=C(CF)NCc1ccc2ccn(C3CCN(CCc4ccc(F)cc4)CC3)c2c1 [Example 366, 1-[1-(4-fluorophenethyl)piperidin-4-yl]-6-fluoroacetamidomethylindole] | 106 to 108 | 74.6 | 2.05 | 0.48
28 | O=C(CCCl)NCc1ccc2ccn(C3CCN(CCc4ccc(F)cc4)CC3)c2c1 [Example 367, 1-[1-(4-fluorophenethyl)piperidin-4-yl]-6-(3-chloropropionylamino)methylindole] | 121 to 122 | 45.8 | 1.76 | 1.63
29 | CCC(=O)NCc1ccc2ccn(C3CCN(CCc4ccccc4F)CC3)c2c1 [Example 380, 1-[1-(2-fluorophenethyl)piperidin-4-yl]-6-propionylaminomethylindole] | 118 to 119 | 116 | 1.56 | 2.87
